Converted amounts (≈) assume the structure as drawn. The source made the active and inactive calls. The calls are words filed in the database; no cut-off is given here.
System: Staphylococcus aureus
Assay: Antibacterial activity against Methicillin-sensitive Staphylococcus aureus ATCC 6538 clinical isolates after 18 to 20 hrs in aerobic condition by CLSI protocol based broth microdilution assay
Format: functional
Conditions: not given

Row | Compound | MIC [mg/L]
1 | C/C(=N\NC(=N)N)c1cnn(-c2ccc(C#Cc3ccccc3)cc2)c1C | 1 (≈ 2.81 µM)

System: Staphylococcus aureus
Assay: Antibacterial activity against linezolid-resistant/Methicillin-resistant Staphylococcus aureus NRS119 clinical isolates after 18 to 20 hrs in aerobic condition by CLSI protocol based broth microdilution assay
Format: functional
Conditions: not given

Row | Compound | MIC [mg/L]
2 | C/C(=N\NC(=N)N)c1cnn(-c2ccc(C#Cc3ccccc3)cc2)c1C | 1 (≈ 2.81 µM)

System: Staphylococcus aureus
Assay: Antibacterial activity against Methicillin-resistant Staphylococcus aureus NRS385-USA500 clinical isolates after 18 to 20 hrs in aerobic condition by CLSI protocol based broth microdilution assay
Format: functional
Conditions: not given

Row | Compound | MIC [mg/L]
3 | C/C(=N\NC(=N)N)c1cnn(-c2ccc(C#Cc3ccccc3)cc2)c1C | 1 (≈ 2.81 µM)

System: Staphylococcus aureus
Assay: Antibacterial activity against Methicillin-resistant Staphylococcus aureus USA700-NRS386 clinical isolates after 18 to 20 hrs in aerobic condition by CLSI protocol based broth microdilution assay
Format: functional
Conditions: not given

Row | Compound | MIC [mg/L]
4 | C/C(=N\NC(=N)N)c1cnn(-c2ccc(C#Cc3ccccc3)cc2)c1C | 2 (≈ 5.61 µM)

System: Staphylococcus aureus
Assay: Antibacterial activity against vancomycin-resistant Staphylococcus aureus isolate 10 after 18 to 20 hrs in aerobic condition by CLSI-based broth microdilution assay
Format: functional
Conditions: not given

Row | Compound | MIC [mg/L]
5 | C/C(=N\NC(=N)N)c1cnn(-c2ccc(C#Cc3ccccc3)cc2)c1C | 1 (≈ 2.81 µM)

System: Staphylococcus aureus
Assay: Antibacterial activity against vancomycin-resistant Staphylococcus aureus isolate 12 after 18 to 20 hrs in aerobic condition by CLSI-based broth microdilution assay
Format: functional
Conditions: not given

Row | Compound | MIC [mg/L]
6 | C/C(=N\NC(=N)N)c1cnn(-c2ccc(C#Cc3ccccc3)cc2)c1C | 2 (≈ 5.61 µM)

System: Staphylococcus epidermidis
Assay: Antibacterial activity against Staphylococcus epidermidis NRS101 after 18 to 20 hrs in aerobic condition by CLSI-based broth microdilution assay
Format: functional
Conditions: not given

Row | Compound | MIC [mg/L]
7 | C/C(=N\NC(=N)N)c1cnn(-c2ccc(C#Cc3ccccc3)cc2)c1C | 2 (≈ 5.61 µM)

System: Enterococcus faecalis
Assay: Antibacterial activity against vancomycin-resistant Enterococcus faecalis ATCC 51299 clinical isolates after 18 to 20 hrs in aerobic condition by CLSI-based broth microdilution assay
Format: functional
Conditions: not given

Row | Compound | MIC [mg/L]
8 | C/C(=N\NC(=N)N)c1cnn(-c2ccc(C#Cc3ccccc3)cc2)c1C | 1 (≈ 2.81 µM)

System: Enterococcus faecium
Assay: Antibacterial activity against vancomycin-resistant Enterococcus faecium ATCC 700221 clinical isolates after 18 to 20 hrs in aerobic condition by CLSI-based broth microdilution assay
Format: functional
Conditions: not given

Row | Compound | MIC [mg/L]
9 | C/C(=N\NC(=N)N)c1cnn(-c2ccc(C#Cc3ccccc3)cc2)c1C | 1 (≈ 2.81 µM)

System: Listeria monocytogenes
Assay: Antibacterial activity against Listeria monocytogenes ATCC 19111 after 18 to 20 hrs in aerobic condition by CLSI-based broth microdilution assay
Format: functional
Conditions: not given

Row | Compound | MIC [mg/L]
10 | C/C(=N\NC(=N)N)c1cnn(-c2ccc(C#Cc3ccccc3)cc2)c1C | 2 (≈ 5.61 µM)

System: Acinetobacter baumannii
Assay: Antibacterial activity against Acinetobacter baumannii ATCC 19606 clinical isolates after 18 to 20 hrs in aerobic condition by CLSI-based broth microdilution assay
Format: functional
Conditions: ATCC 19606 = CIP 70.34 = JCM 6841

Row | Compound | MIC [mg/L]
11 | C/C(=N\NC(=N)N)c1cnn(-c2ccc(C#Cc3ccccc3)cc2)c1C | 4 (≈ 11.2 µM)

System: Acinetobacter baumannii
Assay: Antibacterial activity against Acinetobacter baumannii ATCC BAA 1141 clinical isolates after 18 to 20 hrs in aerobic condition by CLSI-based broth microdilution assay
Format: functional
Conditions: not given

Row | Compound | MIC [mg/L]
12 | C/C(=N\NC(=N)N)c1cnn(-c2ccc(C#Cc3ccccc3)cc2)c1C | 4 (≈ 11.2 µM)

System: Acinetobacter baumannii
Assay: Antibacterial activity against Acinetobacter baumannii NR 17785 clinical isolates after 18 to 20 hrs in aerobic condition by CLSI-based broth microdilution assay
Format: functional
Conditions: not given

Row | Compound | MIC [mg/L]
13 | C/C(=N\NC(=N)N)c1cnn(-c2ccc(C#Cc3ccccc3)cc2)c1C | 4 (≈ 11.2 µM)

System: Escherichia coli
Assay: Antibacterial activity against Escherichia coli BW25113 clinical isolates after 18 to 20 hrs in aerobic condition by CLSI-based broth microdilution assay
Format: functional
Conditions: not given

Row | Compound | MIC [mg/L]
14 | C/C(=N\NC(=N)N)c1cnn(-c2ccc(C#Cc3ccccc3)cc2)c1C | 8 (≈ 22.4 µM)

System: Escherichia coli
Assay: Antibacterial activity against Escherichia coli ATCC 35150 clinical isolates after 18 to 20 hrs in aerobic condition by CLSI-based broth microdilution assay
Format: functional
Conditions: not given

Row | Compound | MIC [mg/L]
15 | C/C(=N\NC(=N)N)c1cnn(-c2ccc(C#Cc3ccccc3)cc2)c1C | 8 (≈ 22.4 µM)

System: not listed separately
Assay: Antibacterial activity against Enterobacter cloacae subsp. cloacae ATCC BAA-1143 clinical isolates after 18 to 20 hrs in aerobic condition by CLSI-based broth microdilution assay
Format: functional
Conditions: not given

Row | Compound | MIC [mg/L]
16 | C/C(=N\NC(=N)N)c1cnn(-c2ccc(C#Cc3ccccc3)cc2)c1C | 8 (≈ 22.4 µM)

System: Klebsiella pneumoniae
Assay: Antibacterial activity against Klebsiella pneumoniae BAA-1144 clinical isolates after 18 to 20 hrs in aerobic condition by CLSI-based broth microdilution assay
Format: functional
Conditions: not given

Row | Compound | MIC [mg/L]
17 | C/C(=N\NC(=N)N)c1cnn(-c2ccc(C#Cc3ccccc3)cc2)c1C | 8 (≈ 22.4 µM)

System: Salmonella enteritidis
Assay: Antibacterial activity against Salmonella enteritidis ATCC 13076 clinical isolates after 18 to 20 hrs in aerobic condition by CLSI-based broth microdilution assay
Format: functional, Salmonella enterica subsp. enterica serovar Enteritidis
Conditions: Salmonella enterica

Row | Compound | MIC [mg/L]
18 | C/C(=N\NC(=N)N)c1cnn(-c2ccc(C#Cc3ccccc3)cc2)c1C | 8 (≈ 22.4 µM)

System: Salmonella enteritidis
Assay: Antibacterial activity against Salmonella enteritidis ATCC 14028 clinical isolates after 18 to 20 hrs in aerobic condition by CLSI-based broth microdilution assay
Format: functional, Salmonella enterica subsp. enterica serovar Enteritidis
Conditions: Salmonella enterica

Row | Compound | MIC [mg/L]
19 | C/C(=N\NC(=N)N)c1cnn(-c2ccc(C#Cc3ccccc3)cc2)c1C | 16 (≈ 44.9 µM)

System: Salmonella typhimurium
Assay: Antibacterial activity against Salmonella typhimurium ATCC 700720 after 18 to 20 hrs in aerobic condition by CLSI-based broth microdilution assay
Format: functional, Salmonella enterica subsp. enterica serovar Typhimurium
Conditions: Salmonella enterica

Row | Compound | MIC [mg/L]
20 | C/C(=N\NC(=N)N)c1cnn(-c2ccc(C#Cc3ccccc3)cc2)c1C | 8 (≈ 22.4 µM)

System: Shigella flexneri
Assay: Antibacterial activity against Shigella flexneri ATCC 9199 clinical isolates after 18 to 20 hrs in aerobic condition by CLSI-based broth microdilution assay
Format: functional
Conditions: not given

Row | Compound | MIC [mg/L]
21 | C/C(=N\NC(=N)N)c1cnn(-c2ccc(C#Cc3ccccc3)cc2)c1C | 8 (≈ 22.4 µM)

System: Escherichia coli
Assay: Antibacterial activity against carbapenem-resistant Escherichia coli BAA-2452 clinical isolates after 18 to 20 hrs in aerobic condition by CLSI-based broth microdilution assay
Format: functional
Conditions: not given

Row | Compound | MIC [mg/L]
22 | C/C(=N\NC(=N)N)c1cnn(-c2ccc(C#Cc3ccccc3)cc2)c1C | 8 (≈ 22.4 µM)

System: Escherichia coli
Assay: Antibacterial activity against carbapenem-resistant Escherichia coli BAA-2469 clinical isolates after 18 to 20 hrs in aerobic condition by CLSI-based broth microdilution assay
Format: functional
Conditions: not given

Row | Compound | MIC [mg/L]
23 | C/C(=N\NC(=N)N)c1cnn(-c2ccc(C#Cc3ccccc3)cc2)c1C | 8 (≈ 22.4 µM)

System: Acinetobacter baumannii
Assay: Antibacterial activity against carbapenem-resistant Acinetobacter baumannii ATCC BAA 1605 clinical isolates after 18 to 20 hrs in aerobic condition by CLSI-based broth microdilution assay
Format: functional
Conditions: not given

Row | Compound | MIC [mg/L]
24 | C/C(=N\NC(=N)N)c1cnn(-c2ccc(C#Cc3ccccc3)cc2)c1C | 4 (≈ 11.2 µM)

System: Escherichia coli
Assay: Inhibition of 6His tagged Escherichia coli UPPP expressed in Escherichia coli C41(DE3) cells preincubated for 15 mins followed by FPP substrate addition and measured after 20 mins by malachite green reagent based assay
Conditions: not given

Row | Compound | inhibition
25 | C/C(=N\NC(=N)N)c1cnn(-c2ccc(C#Cc3ccccc3)cc2)c1C | inactive

System: Staphylococcus aureus
Assay: Ratio of MBC to MIC for Methicillin-sensitive Staphylococcus aureus ATCC 6538 clinical isolates
Format: functional
Conditions: not given

Row | Compound | Ratio
26 | C/C(=N\NC(=N)N)c1cnn(-c2ccc(C#Cc3ccccc3)cc2)c1C | <=2

System: Staphylococcus aureus
Assay: Ratio of MBC to MIC for Methicillin-sensitive Staphylococcus aureus NRS107 clinical isolates
Format: functional
Conditions: not given

Row | Compound | Ratio
27 | C/C(=N\NC(=N)N)c1cnn(-c2ccc(C#Cc3ccccc3)cc2)c1C | <=2

System: Streptococcus pneumoniae
Assay: Ratio of MBC to MIC for cephalosporin-resistant Streptococcus pneumoniae ATCC 51916 clinical isolates
Format: functional
Conditions: not given

Row | Compound | Ratio
28 | C/C(=N\NC(=N)N)c1cnn(-c2ccc(C#Cc3ccccc3)cc2)c1C | <3

System: Acinetobacter baumannii
Assay: Ratio of MBC to MIC for Acinetobacter baumannii ATCC 19606 clinical isolates
Format: functional, ATCC 19606 = CIP 70.34 = JCM 6841
Conditions: not given

Row | Compound | Ratio
29 | C/C(=N\NC(=N)N)c1cnn(-c2ccc(C#Cc3ccccc3)cc2)c1C | >=1

System: Acinetobacter baumannii
Assay: Ratio of MBC to MIC for Acinetobacter baumannii ATCC BAA 1747 clinical isolates
Format: functional
Conditions: not given

Row | Compound | Ratio
30 | C/C(=N\NC(=N)N)c1cnn(-c2ccc(C#Cc3ccccc3)cc2)c1C | >=1

System: Acinetobacter baumannii
Assay: Ratio of MBC to MIC for Acinetobacter baumannii NR 17785 clinical isolates
Format: functional
Conditions: not given

Row | Compound | Ratio
31 | C/C(=N\NC(=N)N)c1cnn(-c2ccc(C#Cc3ccccc3)cc2)c1C | >=1

System: Acinetobacter baumannii
Assay: Ratio of MBC to MIC for Acinetobacter baumannii NR 17786 clinical isolates
Format: functional
Conditions: not given

Row | Compound | Ratio
32 | C/C(=N\NC(=N)N)c1cnn(-c2ccc(C#Cc3ccccc3)cc2)c1C | >=1

System: Escherichia coli
Assay: Ratio of MBC to MIC for Escherichia coli ATCC 25922 clinical isolates
Format: functional
Conditions: not given

Row | Compound | Ratio
33 | C/C(=N\NC(=N)N)c1cnn(-c2ccc(C#Cc3ccccc3)cc2)c1C | >=1

System: Escherichia coli
Assay: Ratio of MBC to MIC for Escherichia coli ATCC 35150 clinical isolates
Format: functional
Conditions: not given

Row | Compound | Ratio
34 | C/C(=N\NC(=N)N)c1cnn(-c2ccc(C#Cc3ccccc3)cc2)c1C | >=1

System: Enterobacter cloacae subsp. cloacae
Assay: Ratio of MBC to MIC for Enterobacter cloacae subsp. cloacae ATCC BAA-1143 clinical isolates
Format: functional
Conditions: not given

Row | Compound | Ratio
35 | C/C(=N\NC(=N)N)c1cnn(-c2ccc(C#Cc3ccccc3)cc2)c1C | > 1

System: Klebsiella pneumoniae
Assay: Ratio of MBC to MIC for Klebsiella pneumoniae BAA-1706 after 18 to 20 hrs in aerobic condition by CLSI-based broth microdilution assay
Format: functional
Conditions: not given

Row | Compound | Ratio
36 | C/C(=N\NC(=N)N)c1cnn(-c2ccc(C#Cc3ccccc3)cc2)c1C | >=1

System: Klebsiella pneumoniae
Assay: Ratio of MBC to MIC for Klebsiella pneumoniae BAA-1144 clinical isolates
Format: functional
Conditions: not given

Row | Compound | Ratio
37 | C/C(=N\NC(=N)N)c1cnn(-c2ccc(C#Cc3ccccc3)cc2)c1C | >=1

System: Salmonella enterica
Assay: Ratio of MBC to MIC for Salmonella enterica NR-170 clinical isolates
Format: functional
Conditions: not given

Row | Compound | Ratio
38 | C/C(=N\NC(=N)N)c1cnn(-c2ccc(C#Cc3ccccc3)cc2)c1C | >=1

System: Salmonella enteritidis
Assay: Ratio of MBC to MIC for Salmonella enteritidis ATCC 13076 clinical isolates
Format: functional, Salmonella enterica subsp. enterica serovar Enteritidis
Conditions: not given

Row | Compound | Ratio
39 | C/C(=N\NC(=N)N)c1cnn(-c2ccc(C#Cc3ccccc3)cc2)c1C | >=1

System: Salmonella typhimurium
Assay: Ratio of MBC to MIC for Salmonella typhimurium ATCC 700720 clinical isolates
Format: functional, Salmonella enterica subsp. enterica serovar Typhimurium
Conditions: not given

Row | Compound | Ratio
40 | C/C(=N\NC(=N)N)c1cnn(-c2ccc(C#Cc3ccccc3)cc2)c1C | >=1

System: Shigella flexneri
Assay: Ratio of MBC to MIC for Shigella flexneri ATCC 9199 clinical isolates
Format: functional
Conditions: not given

Row | Compound | Ratio
41 | C/C(=N\NC(=N)N)c1cnn(-c2ccc(C#Cc3ccccc3)cc2)c1C | >=1

System: Pseudomonas aeruginosa
Assay: Ratio of MBC to MIC for Pseudomonas aeruginosa ATCC 25619 clinical isolates
Format: functional
Conditions: not given

Row | Compound | Ratio
42 | C/C(=N\NC(=N)N)c1cnn(-c2ccc(C#Cc3ccccc3)cc2)c1C | >=1

System: Pseudomonas aeruginosa
Assay: Ratio of MBC to MIC for Pseudomonas aeruginosa ATCC 15442 clinical isolates
Format: functional
Conditions: not given

Row | Compound | Ratio
43 | C/C(=N\NC(=N)N)c1cnn(-c2ccc(C#Cc3ccccc3)cc2)c1C | >=1

System: Pseudomonas aeruginosa
Assay: microbe, parasite or virus in culture
Conditions: ATCC 9027
Description: Antibacterial activity against Pseudomonas aeruginosa ATCC 9027 clinical isolates after 18 to 20 hrs in aerobic condition by CLSI-based broth microdilution assay

Row | Compound | MIC [mg/L]
44 | C/C(=N\NC(=N)N)c1cnn(-c2ccc(C#Cc3ccccc3)cc2)c1C | 16 (≈ 44.9 µM)
